Data from patent US20210379077A1, “TOPOISOMERASE II CATALYTIC INHIBITOR COMPOUND THERAPEUTICS FOR CANCER TREATMENT, METHODS AND USES” (The University of British Columbia, priority 2018, published 2021).

Tests used:
Cancer Cell = assay: Cancer cell growth inhibition; type: cell-based; parameters: key: Y is an indication that activity was found
Procedure: BrDU incorporation and cell proliferation assays—Cell proliferation rates were measured by using the CellTitre™ 96 AqueousOne™ kit (Promega™) and bromodeoxyuridine (BrdU) assay kit (Millipore™) according to the manufacturer's protocol, with minor modifications as we have previously described by Li H. et al.^19

K562 cells = assay: γH2AX Western blot (DNA damage in cells); type: cell-based; conditions: 10-20 μM, 4 hours, listed as Top60
Procedure: Cytotoxicity was evaluated by measuring LDH levels from cell culture media; (b) K562 cells were treated with either vehicle or 10-20 μM of Top60, Etoposide and ICRF187 for 4 hours. Whole cell lyses were collected to measure γH2AX levels with vinculin as the loading control; (c) K562 cells were treated with 0, 1, 5, 10, 15 and 20 μM of Top60, 20 μM Etoposide or 20 uM ICRF187 for 48 hours. Cell proliferation rates were determined by MTS assays; and (d) K562 cells were treated with 20 μM of Top60, Etoposide or ICRF187 for 0, 24, 48 and 72 hours. Cell proliferation rates were measured by MTS assays. All results were collected from three independent experiments.
Top60 is a catalytic inhibitor of Topo II To verify that our lead Compound 60(Top60), the formation of ds DNA breaks was assayed both in and outside of cells. To assess whether Top60 causes double stranded DNA breaks outside cells, supercoiled plasmid was incubated with and without Top60 in the presence of Topo II (FIG. 1d). […] Furthermore, H2AXγ protein expression was assessed by Western blot to determine if the lead compound could cause DNA damage in cells, and compared to Etoposide as a control (FIG. 3b). […] To determine if Top60 was capable of intercalating DNA, it was incubated with relaxed plasmid at increasing concentrations and compared with m-AMSA, a known intercalator. […]

[1] = system: Etoposide-resistant K562 cell line; assay: MTS cell proliferation assay in Etoposide-resistant cells; type: cell-based; conditions: 0-20 μM, 48 hours; cells with downregulated Topo II
Procedure: Whole cell lyses were collected and used to measure protein levels of TOP2α, TOP2β with β-Actin as a loading control; (b) K562 cells were treated with 0, 1, and 10 μM of Top60 for 24 hours. Protein lyses were collected from soluble nuclear extract, chromatin fraction or whole cell lysate. TOP2α and TOP2β protein levels were determined by immunoblotting with Lamin A/C, Histone H3 and β-Actin as loading controls; and (c) Etoposide-resistant K562 cell line was established by treating cells with 0.5 μM of Etoposide for 6 months. TOP2α, TOP2β, and β-actin protein levels were determined by immunoblotting. Etoposide-resistant K562 cells were treated with 0, 1, 10, 15 and 20 μM of Top60, Etoposide or ICRF187 for 48 hours. Cell proliferation rates were determined by MTS assays.
In order to asses binding of the lead compound to Topo II, a thermal shift assay was performed. […] It was observed that Topo IIα was stabilized up to 43° C. in the presence of the lead compound (FIG. 4A). Furthermore, cellular fractionation was performed to assess localized changes in Topo II in response to compound treatment. As Topo IIα is important for decatenating DNA during cellular replication, it is expected to be chromatin bound. […] To further verily that Topo II is the only observable target of Top60, Etoposide resistant cell lines were bred. […]

Topo IIα = Topo IIα (Homo sapiens, UniProt P11388); assay: DNA cleavage assay (linear DNA formation); type: biochemical; parameters: purchased TopoGENE (TopoGEN) TG2000H; conditions: supercoiled plasmid with Topo II, 50 μM
Topo IIα, sequence (P11388 whole entry): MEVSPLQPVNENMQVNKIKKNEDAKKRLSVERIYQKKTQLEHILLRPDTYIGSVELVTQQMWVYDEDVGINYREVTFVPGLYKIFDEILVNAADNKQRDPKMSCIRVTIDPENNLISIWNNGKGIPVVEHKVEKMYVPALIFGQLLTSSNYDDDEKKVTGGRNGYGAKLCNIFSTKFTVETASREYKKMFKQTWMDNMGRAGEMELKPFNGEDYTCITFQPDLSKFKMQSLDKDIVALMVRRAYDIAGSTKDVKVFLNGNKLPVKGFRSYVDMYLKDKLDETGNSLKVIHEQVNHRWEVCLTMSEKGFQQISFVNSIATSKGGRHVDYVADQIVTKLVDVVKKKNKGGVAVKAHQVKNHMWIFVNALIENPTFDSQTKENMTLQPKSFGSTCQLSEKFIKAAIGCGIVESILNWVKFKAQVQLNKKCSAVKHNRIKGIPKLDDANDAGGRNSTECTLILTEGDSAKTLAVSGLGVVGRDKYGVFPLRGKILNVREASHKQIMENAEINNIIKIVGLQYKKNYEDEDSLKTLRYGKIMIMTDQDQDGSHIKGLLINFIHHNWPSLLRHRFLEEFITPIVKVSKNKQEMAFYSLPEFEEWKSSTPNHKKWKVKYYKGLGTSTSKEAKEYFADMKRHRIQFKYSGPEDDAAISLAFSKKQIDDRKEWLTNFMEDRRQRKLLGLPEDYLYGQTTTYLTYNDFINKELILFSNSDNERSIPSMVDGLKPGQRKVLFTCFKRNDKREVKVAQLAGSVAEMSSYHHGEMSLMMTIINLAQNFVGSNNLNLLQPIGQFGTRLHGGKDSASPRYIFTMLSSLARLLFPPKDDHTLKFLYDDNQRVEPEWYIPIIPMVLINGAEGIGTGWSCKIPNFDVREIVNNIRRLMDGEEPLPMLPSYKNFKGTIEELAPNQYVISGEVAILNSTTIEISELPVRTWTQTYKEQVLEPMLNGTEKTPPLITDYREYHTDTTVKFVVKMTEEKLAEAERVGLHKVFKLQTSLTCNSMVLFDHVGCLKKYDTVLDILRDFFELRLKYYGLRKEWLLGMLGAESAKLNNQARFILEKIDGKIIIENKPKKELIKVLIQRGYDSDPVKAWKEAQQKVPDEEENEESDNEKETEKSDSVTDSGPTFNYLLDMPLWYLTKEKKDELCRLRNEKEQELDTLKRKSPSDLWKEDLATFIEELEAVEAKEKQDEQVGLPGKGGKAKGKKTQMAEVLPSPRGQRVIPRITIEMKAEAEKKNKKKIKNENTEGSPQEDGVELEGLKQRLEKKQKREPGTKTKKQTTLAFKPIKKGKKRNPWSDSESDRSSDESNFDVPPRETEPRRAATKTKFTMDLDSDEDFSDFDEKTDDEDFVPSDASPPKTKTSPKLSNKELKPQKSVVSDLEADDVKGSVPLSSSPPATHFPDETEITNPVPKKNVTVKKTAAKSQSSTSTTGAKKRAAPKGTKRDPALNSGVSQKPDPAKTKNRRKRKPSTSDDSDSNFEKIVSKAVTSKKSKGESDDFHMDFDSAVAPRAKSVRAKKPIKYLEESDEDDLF
Procedure: DNA samples were separated by electrophoresis on 0.8% agarose gels and visualized by ethium bromide staining. The positions of K-DNA and decatenated (D) DNA products are marked by arrows. Experiments were repeated five times and the densitometry of the D bands were used to establish an inhibition curve to calculate IC50. (b) Supercoiled pHOT™ plasmid was incubated with human TOP2a in the presence of 50 μM Etopside, 50 uM ICRF193 or 0-50 μM of compound #60 (Top60) compound at 37° C. for 1 hour. DNA products were separated by electrophoresis on 1% agarose gels and visualized by ethium bromide staining. The positions of supercoiled (SC), nicked (N), and relaxed (R) DNA bands are marked by arrows. Experiments were repeated five times and the densitometiy of the SC bands were used to establish an inhibition curve to calculate IC50. (c) Supercoiled pHOT™ plasmid was incubated with Topoisomerase I prior to addition of either mAMSA or compound #60 (Top60) at concentrations of 0, 5, 10, 25 and 50 μM at 37° C. for 30 minutes. […]
Top60 is a catalytic inhibitor of Topo II To verify that our lead Compound 60(Top60), the formation of ds DNA breaks was assayed both in and outside of cells. […] Furthermore, H2AXγ protein expression was assessed by Western blot to determine if the lead compound could cause DNA damage in cells, and compared to Etoposide as a control (FIG. 3b). […]

O=C(Nc1ccc(Nc2ccccc2)cc1)c1ccc[nH]c1=S [Compound 60]
Cancer Cell Growth Inhib. (Cancer Cell): Y
DNA damage in cells by H2AXγ protein level (K562 cells): do not cause DNA damage
inhibitory effects on Etoposide resistant cells [1]: dramatically reduced
formation of linear DNA (double stranded DNA breaks, poison activity) (Topo IIα): no linear DNA is formed
formation of linear DNA (double stranded DNA breaks, poison activity) (Topo IIα; listed as Top60): almost no band corresponding to linear DNA is formed
